Laboratory results as given in patent publication US7884136B2, “Modified-release formulations of a bupropion salt” (Biovail Laboratories International S.R.L., priority 2005, dated 2011).

Assay: Shelf life stability program of bupropion HBr, 25° C./60% RH, 3 and 6 months, HPLC
Format: physicochemical
Settings: 25° C./RH 60%; for Chromatographic purity B) (HPLC): 4) 2-N-(tert-Butyl)-aminopropiophenone / Chromatographic purity B) (HPLC): 5) single unknown impurity (each): LOQ 0.02%, LOD 0.002%; for Chromatographic purity A) (HPLC): 1) 3′-Chloropropiophenone / Chromatographic purity A) (HPLC): 3) 3′-Chlorobenzoic acid / Chromatographic purity A) (HPLC): 2) 3′-Chloro-2-bromopropiophenone: LOQ 0.05%; for Chromatographic purity A) (HPLC): 1) 3′-Chloropropiophenone / Chromatographic purity A) (HPLC): 3) 3′-Chlorobenzoic acid: LOD 0.01%; for Chromatographic purity A) (HPLC): 2) 3′-Chloro-2-bromopropiophenone: LOD 0.04%; for Description: specification white or almost white crystalline powder; for Assay (HPLC): on d.b.; for Chromatographic purity B) (HPLC): 6) total unknown impurities: sum of all impurity peak areas
Experimental: The stability of bupropion HBr was studied over a longer term under conditions meant to approximate standard storage or shelf conditions. Samples were prepared in closed containers and subjected to long-term storage at 25° C.+2° C. and 60%+5% RH in a stability chamber. The samples were analyzed by HPLC prior to being placed in the stability chamber (time 0) and after 3 months and 6 months. The amounts of the main degradation products present at time 0 were compared with the amounts present at 3 months and 6 months. As shown in Table 77-79 three different batches of bupropion HBr were tested. As in Example 10 each sample was tested under two HPLC assay conditions to identify 6 impurities or groups of impurities as described in Example 10.

Br.CC(NC(C)(C)C)C(=O)c1cccc(Cl)c1 (stereo not shown) [Bupropion•HBr D00894]
Chromatographic purity (HPLC: A + B) Total impurities (3 months): 0.1% | Water content (K.F.) (3 months): 0.05% | Chromatographic purity B) (HPLC): 4) 2-N-(tert-Butyl)-aminopropiophenone (3 months): 4) 0.03% | Chromatographic purity B) (HPLC): 5) single unknown impurity (each) (3 months): 5) 0.04% | Chromatographic purity A) (HPLC): 1) 3′-Chloropropiophenone (3 months): 1) n.q. | Chromatographic purity A) (HPLC): 3) 3′-Chlorobenzoic acid (3 months): 3) n.q. | Chromatographic purity A) (HPLC): 2) 3′-Chloro-2-bromopropiophenone (3 months): 2) n.d. | Description (3 months): conform | Chromatographic purity (HPLC: A + B) Total impurities (6 months): 0.1% | Water content (K.F.) (6 months): 0.06% | Chromatographic purity B) (HPLC): 4) 2-N-(tert-Butyl)-aminopropiophenone (6 months): 4) 0.05% | Chromatographic purity B) (HPLC): 5) single unknown impurity (each) (6 months): 5) n.q. | Chromatographic purity A) (HPLC): 1) 3′-Chloropropiophenone (6 months): 1) 0.05% | Chromatographic purity A) (HPLC): 3) 3′-Chlorobenzoic acid (6 months): 3) n.q. | Chromatographic purity A) (HPLC): 2) 3′-Chloro-2-bromopropiophenone (6 months): 2) n.d. | Assay (HPLC) (6 months): 100.2% | Description (6 months): conform | Chromatographic purity (HPLC: A + B) Total impurities (9 months): n.q. | Water content (K.F.) (9 months): 0.05% | Chromatographic purity B) (HPLC): 4) 2-N-(tert-Butyl)-aminopropiophenone (9 months): 4) n.d. | Chromatographic purity B) (HPLC): 5) single unknown impurity (each) (9 months): 5) n.q. | Chromatographic purity A) (HPLC): 1) 3′-Chloropropiophenone (9 months): 1) n.q. | Chromatographic purity A) (HPLC): 3) 3′-Chlorobenzoic acid (9 months): 3) n.q. | Chromatographic purity A) (HPLC): 2) 3′-Chloro-2-bromopropiophenone (9 months): 2) n.d. | Description (9 months): conform | Chromatographic purity B) (HPLC): 6) total unknown impurities (9 months): 6) n.q. | Chromatographic purity (HPLC: A + B) Total impurities (12 months): 0.2% | Water content (K.F.) (12 months): 0.05% | Chromatographic purity B) (HPLC): 4) 2-N-(tert-Butyl)-aminopropiophenone (12 months): 4) 0.05% | Chromatographic purity B) (HPLC): 5) single unknown impurity (each) (12 months): 5) 0.05% | Chromatographic purity A) (HPLC): 1) 3′-Chloropropiophenone (12 months): 1) n.d. | Chromatographic purity A) (HPLC): 3) 3′-Chlorobenzoic acid (12 months): 3) 0.05% | Chromatographic purity A) (HPLC): 2) 3′-Chloro-2-bromopropiophenone (12 months): 2) n.d. | Assay (HPLC) (12 months): 99.6% | Description (12 months): conform | Chromatographic purity B) (HPLC): 6) total unknown impurities (12 months): 6) 0.07% | Chromatographic purity (HPLC: A + B) Total impurities (time 0): 0.1% | Water content (K.F.) (time 0): 0.05% | Chromatographic purity B) (HPLC): 4) 2-N-(tert-Butyl)-aminopropiophenone (time 0): 4) 0.04% | Chromatographic purity B) (HPLC): 5) single unknown impurity (each) (time 0): 5) 0.04% | Chromatographic purity A) (HPLC): 1) 3′-Chloropropiophenone (time 0): 1) n.d. | Chromatographic purity A) (HPLC): 3) 3′-Chlorobenzoic acid (time 0): 3) n.q. | Chromatographic purity A) (HPLC): 2) 3′-Chloro-2-bromopropiophenone (time 0): 2) n.d. | Assay (HPLC) (time 0): 99.6% | Description (time 0): conform

Br.CC(NC(C)(C)C)C(=O)c1cccc(Cl)c1 (stereo not shown) [Bupropion•HBr D00895]
Chromatographic purity (HPLC: A + B) Total impurities (3 months): 0.1% | Water content (K.F.) (3 months): 0.04% | Chromatographic purity B) (HPLC): 4) 2-N-(tert-Butyl)-aminopropiophenone (3 months): 4) 0.03% | Chromatographic purity B) (HPLC): 5) single unknown impurity (each) (3 months): 5) 0.04% | Chromatographic purity A) (HPLC): 1) 3′-Chloropropiophenone (3 months): 1) n.q. | Chromatographic purity A) (HPLC): 3) 3′-Chlorobenzoic acid (3 months): 3) n.q. | Chromatographic purity A) (HPLC): 2) 3′-Chloro-2-bromopropiophenone (3 months): 2) n.d. | Description (3 months): conform | Chromatographic purity (HPLC: A + B) Total impurities (6 months): 0.1% | Water content (K.F.) (6 months): 0.05% | Chromatographic purity B) (HPLC): 4) 2-N-(tert-Butyl)-aminopropiophenone (6 months): 4) 0.05% | Chromatographic purity B) (HPLC): 5) single unknown impurity (each) (6 months): 5) n.q. | Chromatographic purity A) (HPLC): 1) 3′-Chloropropiophenone (6 months): 1) 0.05% | Chromatographic purity A) (HPLC): 3) 3′-Chlorobenzoic acid (6 months): 3) n.q. | Chromatographic purity A) (HPLC): 2) 3′-Chloro-2-bromopropiophenone (6 months): 2) n.d. | Assay (HPLC) (6 months): 100.1% | Description (6 months): conform | Chromatographic purity B) (HPLC): 6) total unknown impurities (6 months): 6) 0.02% | Chromatographic purity (HPLC: A + B) Total impurities (9 months): n.q. | Water content (K.F.) (9 months): 0.05% | Chromatographic purity B) (HPLC): 4) 2-N-(tert-Butyl)-aminopropiophenone (9 months): 4) n.d. | Chromatographic purity B) (HPLC): 5) single unknown impurity (each) (9 months): 5) n.q. | Chromatographic purity A) (HPLC): 1) 3′-Chloropropiophenone (9 months): 1) n.q. | Chromatographic purity A) (HPLC): 3) 3′-Chlorobenzoic acid (9 months): 3) n.q. | Chromatographic purity A) (HPLC): 2) 3′-Chloro-2-bromopropiophenone (9 months): 2) n.d. | Description (9 months): conform | Chromatographic purity B) (HPLC): 6) total unknown impurities (9 months): 6) n.q. | Chromatographic purity (HPLC: A + B) Total impurities (12 months): 0.2% | Water content (K.F.) (12 months): 0.04% | Chromatographic purity B) (HPLC): 4) 2-N-(tert-Butyl)-aminopropiophenone (12 months): 4) 0.05% | Chromatographic purity B) (HPLC): 5) single unknown impurity (each) (12 months): 5) 0.07% | Chromatographic purity A) (HPLC): 1) 3′-Chloropropiophenone (12 months): 1) n.d. | Chromatographic purity A) (HPLC): 3) 3′-Chlorobenzoic acid (12 months): 3) 0.05% | Chromatographic purity A) (HPLC): 2) 3′-Chloro-2-bromopropiophenone (12 months): 2) n.d. | Description (12 months): conform | Chromatographic purity B) (HPLC): 6) total unknown impurities (12 months): 6) 0.07% | Chromatographic purity (HPLC: A + B) Total impurities (time 0): 0.1% | Water content (K.F.) (time 0): 0.04% | Chromatographic purity B) (HPLC): 4) 2-N-(tert-Butyl)-aminopropiophenone (time 0): 4) 0.04% | Chromatographic purity B) (HPLC): 5) single unknown impurity (each) (time 0): 5) 0.04% | Chromatographic purity A) (HPLC): 1) 3′-Chloropropiophenone (time 0): 1) n.d. | Chromatographic purity A) (HPLC): 3) 3′-Chlorobenzoic acid (time 0): 3) n.q. | Chromatographic purity A) (HPLC): 2) 3′-Chloro-2-bromopropiophenone (time 0): 2) n.d. | Assay (HPLC) (time 0): 99.2% | Description (time 0): conform | Chromatographic purity B) (HPLC): 6) total unknown impurities (time 0): 6) 0.04%

Br.CC(NC(C)(C)C)C(=O)c1cccc(Cl)c1 (stereo not shown) [Bupropion•HBr D00896]
Chromatographic purity (HPLC: A + B) Total impurities (3 months): 0.1% | Water content (K.F.) (3 months): 0.04% | Chromatographic purity B) (HPLC): 4) 2-N-(tert-Butyl)-aminopropiophenone (3 months): 4) 0.03% | Chromatographic purity B) (HPLC): 5) single unknown impurity (each) (3 months): 5) 0.04% | Chromatographic purity A) (HPLC): 1) 3′-Chloropropiophenone (3 months): 1) n.q. | Chromatographic purity A) (HPLC): 3) 3′-Chlorobenzoic acid (3 months): 3) n.q. | Chromatographic purity A) (HPLC): 2) 3′-Chloro-2-bromopropiophenone (3 months): 2) n.d. | Description (3 months): conform | Chromatographic purity B) (HPLC): 6) total unknown impurities (3 months): 6) 0.05% | Chromatographic purity (HPLC: A + B) Total impurities (6 months): 0.1% | Water content (K.F.) (6 months): 0.04% | Chromatographic purity B) (HPLC): 4) 2-N-(tert-Butyl)-aminopropiophenone (6 months): 4) 0.04% | Chromatographic purity B) (HPLC): 5) single unknown impurity (each) (6 months): 5) n.q. | Chromatographic purity A) (HPLC): 1) 3′-Chloropropiophenone (6 months): 1) 0.05% | Chromatographic purity A) (HPLC): 3) 3′-Chlorobenzoic acid (6 months): 3) n.q. | Chromatographic purity A) (HPLC): 2) 3′-Chloro-2-bromopropiophenone (6 months): 2) n.d. | Assay (HPLC) (6 months): 100.5% | Description (6 months): conform | Chromatographic purity B) (HPLC): 6) total unknown impurities (6 months): 6) n.q. | Chromatographic purity (HPLC: A + B) Total impurities (9 months): n.q. | Water content (K.F.) (9 months): 0.04% | Chromatographic purity B) (HPLC): 4) 2-N-(tert-Butyl)-aminopropiophenone (9 months): 4) n.d. | Chromatographic purity B) (HPLC): 5) single unknown impurity (each) (9 months): 5) n.q. | Chromatographic purity A) (HPLC): 1) 3′-Chloropropiophenone (9 months): 1) n.q. | Chromatographic purity A) (HPLC): 3) 3′-Chlorobenzoic acid (9 months): 3) n.q. | Chromatographic purity A) (HPLC): 2) 3′-Chloro-2-bromopropiophenone (9 months): 2) n.d. | Description (9 months): conform | Chromatographic purity B) (HPLC): 6) total unknown impurities (9 months): 6) n.q. | Chromatographic purity (HPLC: A + B) Total impurities (12 months): 0.1% | Water content (K.F.) (12 months): 0.03% | Chromatographic purity B) (HPLC): 4) 2-N-(tert-Butyl)-aminopropiophenone (12 months): 4) 0.05% | Chromatographic purity B) (HPLC): 5) single unknown impurity (each) (12 months): 5) 0.07% | Chromatographic purity A) (HPLC): 1) 3′-Chloropropiophenone (12 months): 1) n.d. | Chromatographic purity A) (HPLC): 3) 3′-Chlorobenzoic acid (12 months): 3) n.q. | Chromatographic purity A) (HPLC): 2) 3′-Chloro-2-bromopropiophenone (12 months): 2) n.d. | Assay (HPLC) (12 months): 100.3% | Description (12 months): conform | Chromatographic purity B) (HPLC): 6) total unknown impurities (12 months): 6) 0.07% | Chromatographic purity (HPLC: A + B) Total impurities (time 0): 0.1% | Water content (K.F.) (time 0): 0.06% | Chromatographic purity B) (HPLC): 4) 2-N-(tert-Butyl)-aminopropiophenone (time 0): 4) 0.04% | Chromatographic purity B) (HPLC): 5) single unknown impurity (each) (time 0): 5) 0.05% | Chromatographic purity A) (HPLC): 1) 3′-Chloropropiophenone (time 0): 1) n.d. | Chromatographic purity A) (HPLC): 3) 3′-Chlorobenzoic acid (time 0): 3) n.q. | Chromatographic purity A) (HPLC): 2) 3′-Chloro-2-bromopropiophenone (time 0): 2) n.d. | Assay (HPLC) (time 0): 99.3% | Description (time 0): conform | Chromatographic purity B) (HPLC): 6) total unknown impurities (time 0): 6) 0.05%
